Experimental data: ChEMBL document CHEMBL3039007, “Structure-based identification of OATP1B1/3 inhibitors” (Mol Pharmacol, 2013)

Columns and labels:
[1] = target: T1, Solute carrier organic anion transporter family member 1B3 (Homo sapiens, UniProt Q9NPD5)
T1 sequence (Q9NPD5 whole entry): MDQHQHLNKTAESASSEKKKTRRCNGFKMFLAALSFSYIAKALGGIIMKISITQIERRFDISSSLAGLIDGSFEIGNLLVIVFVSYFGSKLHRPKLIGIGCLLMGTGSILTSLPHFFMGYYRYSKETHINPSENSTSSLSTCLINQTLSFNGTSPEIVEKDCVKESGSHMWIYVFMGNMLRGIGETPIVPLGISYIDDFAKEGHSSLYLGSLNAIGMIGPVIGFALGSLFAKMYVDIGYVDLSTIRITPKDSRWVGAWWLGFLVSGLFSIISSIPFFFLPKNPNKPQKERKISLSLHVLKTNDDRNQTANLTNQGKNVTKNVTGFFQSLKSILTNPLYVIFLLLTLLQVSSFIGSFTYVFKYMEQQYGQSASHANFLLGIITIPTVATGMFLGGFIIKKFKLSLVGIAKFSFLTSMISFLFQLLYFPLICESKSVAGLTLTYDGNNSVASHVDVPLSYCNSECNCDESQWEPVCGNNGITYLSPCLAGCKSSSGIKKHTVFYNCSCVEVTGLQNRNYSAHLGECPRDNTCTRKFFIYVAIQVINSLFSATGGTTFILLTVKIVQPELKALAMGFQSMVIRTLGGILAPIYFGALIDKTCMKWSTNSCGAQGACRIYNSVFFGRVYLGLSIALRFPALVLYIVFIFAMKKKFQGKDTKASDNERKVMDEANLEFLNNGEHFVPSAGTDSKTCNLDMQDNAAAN

[2] = target: T2, Solute carrier organic anion transporter family member 1B1 (Homo sapiens, UniProt Q9Y6L6); details: chinese hamster, cho, 10 µM
T2 sequence (Q9Y6L6 whole entry): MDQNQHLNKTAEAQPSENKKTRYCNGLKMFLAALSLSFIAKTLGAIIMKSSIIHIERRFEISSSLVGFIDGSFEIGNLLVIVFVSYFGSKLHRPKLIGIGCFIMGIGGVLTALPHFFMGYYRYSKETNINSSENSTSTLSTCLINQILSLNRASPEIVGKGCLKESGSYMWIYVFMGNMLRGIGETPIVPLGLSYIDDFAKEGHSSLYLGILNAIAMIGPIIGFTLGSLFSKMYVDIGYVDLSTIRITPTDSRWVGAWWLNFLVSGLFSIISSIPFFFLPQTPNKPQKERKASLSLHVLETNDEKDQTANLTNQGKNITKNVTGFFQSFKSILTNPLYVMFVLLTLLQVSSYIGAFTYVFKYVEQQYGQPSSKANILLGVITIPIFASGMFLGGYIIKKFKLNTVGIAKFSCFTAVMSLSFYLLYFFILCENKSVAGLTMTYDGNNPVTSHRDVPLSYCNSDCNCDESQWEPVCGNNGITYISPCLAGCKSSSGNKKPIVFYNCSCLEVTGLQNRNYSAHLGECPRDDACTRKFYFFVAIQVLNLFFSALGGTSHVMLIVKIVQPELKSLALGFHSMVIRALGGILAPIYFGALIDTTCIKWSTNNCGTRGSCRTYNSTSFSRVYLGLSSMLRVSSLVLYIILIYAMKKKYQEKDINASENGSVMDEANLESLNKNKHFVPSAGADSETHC

[3] = target: T1, Solute carrier organic anion transporter family member 1B3; remark: listed apart in the source
[4] = target: T1, Solute carrier organic anion transporter family member 1B3; details: chinese hamster, cho, 10 µM
[5] = target: T2, Solute carrier organic anion transporter family member 1B1
[6] = target: T2, Solute carrier organic anion transporter family member 1B1; remark: listed apart in the source

Row | IC50 [1] [nM] | residual activity [2] [%] | Ki [3] [nM] | residual activity [4] [%] | IC50 [5] [nM] | Ki [6] [nM] | Structure (SMILES)
1 | 2400 | 7.804 | 1840 | 14.63 | 145 | 80 | COC(=O)c1c(C)c2c(c(C)c1O)OC(=O)c1c(C)c(Cl)c(O)c(Cl)c1O2 [LEOIDIN]
2 | 1620 | 18.31 | 1250 | 7.572 | 724 | 400 | CCCCCc1c2c(cc(O)c1C(=O)O)OC(=O)c1c(cc(OC)cc1C(=O)CCCC)O2 [LOBARIC ACID]
3 | 550 | 10.9 | 420 | 1.823 | 1150 | 630 | Cc1cc(O)c(C=O)c2c1C(=O)Oc1c(C)c(O)c3c(c1O2)C(O)OC3=O (stereo not drawn) [NORSTICTIC ACID]
4 | 977 | 15.39 | 750 | 9.702 | 977 | 540 | CCCc1nc(C(C)(C)O)c(C(=O)OCc2oc(=O)oc2C)n1Cc1ccc(-c2ccccc2-c2nnn[nH]2)cc1 [OLMESARTAN MEDOXOMIL]
5 | 4270 | 54.77 | 3270 | 46.89 | 6170 | 3370 | COc1cc(C2Oc3cc([C@H]4Oc5cc(O)cc(O)c5C(=O)[C@@H]4O)ccc3OC2CO)ccc1O (stereo partly drawn) [SILIBININ]
6 | 4170 | 18.66 | 3230 | 10.59 | 2630 | 1460 | O=C(OC[C@H]1O[C@@H](OC(=O)c2cc(O)c(O)c(OC(=O)c3cc(O)c(O)c(O)c3)c2)[C@H](OC(=O)c2cc(O)c(O)c(OC(=O)c3cc(O)c(O)c(O)c3)c2)[C@@H](OC(=O)c2cc(O)c(O)c(OC(=O)c3cc(O)c(O)c(O)c3)c2)[C@@H]1OC(=O)c1cc(O)c(O)c(OC(=O)c2cc(O)c(O)c(O)c2)c1)c1cc(O)c(O)c(OC(=O)c2cc(O)c(O)c(O)c2)c1 [TANNIC ACID]
7 | 3390 | 11.04 | 2610 | 11.66 | 1410 | 780 | C/C=C(\C)C(=O)O[C@H]1[C@H](OC(C)=O)[C@@]2(CO)C(CC1(C)C)C1=CC[C@@H]3[C@@]4(C)CC[C@H](O[C@@H]5O[C@H](C(=O)O)[C@@H](O[C@@H]6O[C@H](CO)[C@@H](O)[C@H](O)[C@H]6O)[C@H](O)[C@H]5O[C@@H]5O[C@H](CO)[C@@H](O)[C@H](O)[C@H]5O)[C@H](CO)C4CC[C@@]3(C)[C@@]1(C)C[C@H]2O (stereo partly drawn) [beta-ESCIN]

Row | Structure (SMILES) | IC50 [1] [nM] | residual activity [2] [%] | Ki [3] [nM] | residual activity [4] [%] | IC50 [5] [nM] | Ki [6] [nM]
8 | C=C1[C@@H]2CC[C@@]3(C)[C@H](c4ccoc4)OC(=O)C[C@]13O[C@H]1CC(=O)C(C)(C)[C@H](C(OC(C)=O)C(=O)OC)[C@]12C (stereo partly drawn) [METHYL 6-ACETOXYANGOLENSATE] | 3800 | 11.95 | 2920 | 34.99 | 1450 | 800
9 | CCCCCCCCCc1ccc(OCCOCCOCCOCCOCCOCCOCCOCCOCCO)cc1 [NONOXYNOL 9] | 3720 | 32.74 | 2870 | 27.96 | 3470 | 1920
10 | C=C1[C@@H]([C@@]2(C)[C@@H](OC(C)=O)CC(=O)O[C@](C)(COC(C)=O)[C@@H]2C(=O)OC)[C@@H](OC=O)[C@H](OC(=O)[C@H](O)[C@H](C)CC)[C@@]2(C)[C@H](c3ccoc3)CC(=O)[C@]12O [PRIEURIANIN] | 3390 | 22.79 | 2630 | 25.49 | 2340 | 1280
11 | C[C@H]1CC[C@@]2(OC1)O[C@H]1C[C@H]3[C@@H]4CC[C@@H]5C[C@@H](O)CC[C@]5(C)[C@H]4CC[C@]3(C)[C@H]1[C@@H]2C [SARSASAPOGENIN] | 105 | 50.78 | 80 | 25.69 | 245 | 130
12 | COc1c(CC=C(C)C)c2c(c3oc(=O)c(-c4ccc(O)cc4)c(O)c13)C=CC(C)(C)O2 [SCANDENIN] | 741 | 13.79 | 560 | 9.001 | 1070 | 590
13 | CCC(C)C(=O)O[C@@H]1C[C@@]2(C)[C@H](c3ccoc3)OC(=O)CC23OC2(C)O[C@]14[C@]1(C)[C@@H](CC(=O)OC)C5(C)CC1(O)[C@](O)(C5OC(=O)C1(C)OC1C)[C@@H](OC(C)=O)[C@]34O2 (stereo partly drawn) [UTILIN] | 776 | -3.778 | 600 | 2.658 | 676 | 380
